Test results published in patent US9657046B2, “Methods for the treatment and prevention of inflammatory diseases” (Children's Medical Center Corporation, priority 2010, dated 2017).

Assays:
[1] = tested on: OVA-sensitized BALB/c mice; test: Adoptive transfer of NKT cells from glycolipid-treated mice into OVA-sensitized BALB/c recipients (AHR, BAL); assay type: in vivo, mouse; settings: OVA-sensitized WT recipients
[2] = tested on: pulmonary NKT cells; test: Lung NKT cell subsets (CD4+, DN) by FACS after i.p. glycolipid in 2 week-old mice; assay type: in vivo, mouse; settings: i.p. PI57 50 μg or α-GalCer 2 μg, lung 2 wks later
Protocol: In FIGS. 6A-6B, two-week-old BALB/c mice (n=6-8/group) (6A) or Tbet^−/− mice (6B) (n=4-6 per group) received 5 μg […] (cGal), 2 μg α-GalCer, or vehicle. After OVA sensitization and challenge, AHR was measured on day 44. In FIG. 6C, donor mice were treated with α-C-GalCer (5 μg) or vehicle i.p. NKT cells served as donors, as in FIG. 4A (n=4 per group). Lung resistance (left) and cell counts in BAL (right) were assessed. […] In FIG. 6E, mice received PI57 (50 μg), α-GalCer (2 μg), or vehicle i.p., and lungs were examined 1 or 14 days later for CD4 and CD8 expression. In FIG. 6F, absolute numbers of CD4^+ NKT and DN NKT subsets from 6E were assessed. In FIG. 6G, BALB/c mice (n=5-8/group) received PI57 or vehicle i.p. Lung resistance (left) and BAL cells (right) were assessed. In FIG. 6H, BALB/c mice treated with PI57 (50 μg), PBS30 (Sphingomonas glycolipid) (50 μg), or vehicle i.p. were assessed for AHR as in 6G. In FIG. 6I, donor mice were treated with PI57 (50 μg) or vehicle i.p. NKT cells served as donors as in FIG. 4A. Lung resistance (left) and BAL cells (right) were assessed (n=4 per group). […]
Cells were preincubated with anti-Fey blocking mAb (2.4G2) and washed before staining. […] Cells were analyzed on a BDCanto flow cytometer (BD Biosciences) using FlowJo 8.3.3 software (Tree Star, Inc.).

[3] = tested on: murine NKT cell lines; test: Mouse NKT cell lines cocultured with BM-derived DCs, cytokine ELISA; assay type: cell-based; settings: 48 hours
Protocol: (§1) In FIG. 7A, NKT cell lines were cocultured with BM-derived DCs (BMDCs) and α-GalCer (100 ng/ml), PI57 (10 μg/ml), or vehicle for 48 hours, with or without pre-incubation with anti-CD1d (10 μg/ml). IFN-γ was measured by ELISA. In FIG. 7B, murine NKT cell lines were cocultured as in 7A with BMDCs from WT, Cd1d^−/−, Myd88^−/−, or Trif^−/− mice. Cells were treated with α-GalCer (100 ng/ml), PI57 (2.5, 5, or 10 μg/ml), PBS30 (1, 2.5, or 5 μg/ml), or vehicle for 48 hours. IFN-γ and IL-4 were measured by ELISA. […] In FIG. 7D, mouse NKT cell lines were stained with PE-labeled CD1d tetramers of PI57 or α-GalCer at 4° C. for 45 minutes or 37° C. for 25 minutes, and with anti-TCRβ-APC antibody. Top: Lymphocytes were gated in the FSC/SSC window. Bottom: Percentage of CD1d tetramer+ cells. […] In FIG. 7G, CD1d Fc-coated Maxisorp plates were loaded with lipid and cultured with 5×10^4 NKT cells. IFN-γ was analyzed by ELISA after 24 hours. Data represent 3 or 5 independent experiments.
To establish mouse NKT cell lines, NKT cells were purified by a two-step sorting strategy using MACS. Spleen cells from BALB/c or BALB/c Vα14Jα18 Tg mice were depleted of T cells, B cells, granulocytes, macrophages and DCs by AutoMacs, then stained with PE conjugated-CD1d tetramer and FITC conjugated-anti-TCRβ mAb, and sorted using a MoFlo cell sorter (Dako). The purity of the sorted cells was >99%. To propagate the cells, sorted NKT cells were cultured in 96-well flat-bottom plates (1×10^5 cells/well) with 5×10^3 bone-marrow derived DC in the presence of murine IL-15 (Pepro Tech). Cells were subcultured and restimulated with fresh DCs once a week.
Mouse or human IL-4 and IFN-γ levels were measured by ELISA, as previously described (20). Mean values of triplicate cultures were shown. Data are representative of two or three independent experiments.

[4] = tested on: NKT cell clone BM2a.3; test: Human NKT cell clone BM2a.3 with CD1d-transfected cells, IFN-γ; assay type: cell-based
Protocol: as §1
CD1d transfected K562 cells and CD1d restricted human NKT cell clone BM2a.3 were previously described (62). The anti-CD1d antibody (clone 12.1.1.1) experiments have been performed as described (63).

CCCCCCCCCCCCCC(=O)OC[C@H]1O[C@H](O[C@H]2CC[C@@]3(C)C(=CC[C@H]4[C@@H]5CC[C@H]([C@H](C)CCCC(C)C)[C@@]5(C)CC[C@@H]43)C2)[C@H](O)[C@@H](O)[C@@H]1O [PI57, Cholesteryl 6-O-tetradecanoyl-α-D-glucopyranoside]
airway inflammation (BAL cells, lung sections) in recipients of NKT cells from glycolipid-treated donors ([1]; donors treated i.p. at 2 wk (α-C-GalCer 5 μg, PI57 50 μg)): suppressed AHR and airway inflammation
AHR in recipients of NKT cells from glycolipid-treated donors ([1]; donors treated i.p. at 2 wk (α-C-GalCer 5 μg, PI57 50 μg, or α-GalCer), NKT cells harvested 6 wks later): suppressed AHR
number of NKT cells (CD4+ and DN subsets) in the lung [2]: increased the total number of NKT cells, particularly the number of DN NKT cells
cytokine production with DCs from CD1d−/− mice ([3]; BMDCs from Cd1d−/− mice): failed to support PI57 induced cytokine production
cytokine production with DCs from MyD88−/− or Tri−/− mice ([3]; BMDCs from Myd88−/− or Trif−/− mice): induced cytokine production
IFN-γ production by NKT cell lines + dendritic cells ([3]; PI57 10 μg/ml, BMDCs): induced the production of IFN-γ in a CD1d-restricted manner
cytokine (IFN-γ) production after pre-incubation with anti-CD1d mAb ([3]; PI57 10 μg/ml, anti-CD1d 10 μg/ml): blocked
IFN-γ and IL-4 production compared to PBS30 or α-GalCer ([3]; WT BMDCs, PI57 2.5, 5 or 10 μg/ml): induced IFN-γ and less IL-4
response (IFN-γ production) of Vα24+ NKT cell clone BM2a.3 [4]: responded to this glycolipid
